# Assay results from ChEMBL document CHEMBL5665443, “Enzyme Inhibitor Single Concentration assay results for EUbOPEN Chemogenomics Library” (2024).
# Tests used:
# [1] = biological target: Methyl-CpG-binding domain protein 4 (Homo sapiens) (UniProt O95243); conditions: Hit No;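 note: MBD4 activity read as fluorescence at 594 nm from cleavage and release of a quenched duplex DNA oligonucleotide, with APE1 coupled to incise the strand and raise turnover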
# Description: Inhibition of MBD4 by quantifying inhibition of MBD4-mediated cleavage and dissociation of quenched duplex DNA oligonucleotides, measured as fluorescence at 594 nm. To generate a functional strand incision and increase turn-over this assay is coupled to APE1.
# [2] = biological target: T1, Adenine DNA glycosylase (Homo sapiens) (UniProt Q9UIF7); conditions: Hit No;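 note: human MUTYH activity read as 594 nm fluorescence from cleavage and release of a quenched DNA duplex, coupled with APE1 for strand incision, lower signal meaning inhibition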
# T1 sequence (whole entry): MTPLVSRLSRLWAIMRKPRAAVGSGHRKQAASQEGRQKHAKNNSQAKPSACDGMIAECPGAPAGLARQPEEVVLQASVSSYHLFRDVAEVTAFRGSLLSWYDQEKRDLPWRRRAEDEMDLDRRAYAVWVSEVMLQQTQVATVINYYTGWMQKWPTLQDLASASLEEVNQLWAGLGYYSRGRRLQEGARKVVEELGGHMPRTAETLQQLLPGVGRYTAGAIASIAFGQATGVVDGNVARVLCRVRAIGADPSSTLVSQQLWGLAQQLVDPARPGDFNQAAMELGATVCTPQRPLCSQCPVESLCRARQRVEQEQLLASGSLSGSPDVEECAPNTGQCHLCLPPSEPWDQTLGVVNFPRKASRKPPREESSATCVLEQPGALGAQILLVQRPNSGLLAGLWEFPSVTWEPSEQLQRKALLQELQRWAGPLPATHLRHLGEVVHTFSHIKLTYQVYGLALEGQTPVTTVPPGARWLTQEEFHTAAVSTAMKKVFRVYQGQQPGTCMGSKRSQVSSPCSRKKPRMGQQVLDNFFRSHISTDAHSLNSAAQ
# Description: Inhibition of MUTYH by quantifying inhibition of MUTYH-mediated cleavage and dissociation of quenched duplex DNA oligonucleotides, measured as fluorescence at 594 nm. To generate a functional strand incision and increase turn-over this assay is coupled to APE1.
# [3] = biological target: Endonuclease 8-like 1 (Homo sapiens) (UniProt Q96FI4); conditions: Hit No;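 note: fluorescence at 594 nm from quenched duplex DNA oligonucleotides released by NEIL1 cleavage and strand separation, reported as reduction of this enzyme activity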
# Description: Inhibition of NEIL1 by quantifying inhibition of NEIL1-mediated cleavage and dissociation of quenched duplex DNA oligonucleotides, measured as fluorescence at 594 nm.
# [4] = biological target: T2, Endonuclease 8-like 2 (Homo sapiens) (UniProt Q969S2); conditions: Hit No;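 note: fluorescence at 594 nm reports NEIL2 cutting and release of a quenched double-stranded DNA oligo substrate, reduced signal read as inhibition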
# T2 sequence (whole entry): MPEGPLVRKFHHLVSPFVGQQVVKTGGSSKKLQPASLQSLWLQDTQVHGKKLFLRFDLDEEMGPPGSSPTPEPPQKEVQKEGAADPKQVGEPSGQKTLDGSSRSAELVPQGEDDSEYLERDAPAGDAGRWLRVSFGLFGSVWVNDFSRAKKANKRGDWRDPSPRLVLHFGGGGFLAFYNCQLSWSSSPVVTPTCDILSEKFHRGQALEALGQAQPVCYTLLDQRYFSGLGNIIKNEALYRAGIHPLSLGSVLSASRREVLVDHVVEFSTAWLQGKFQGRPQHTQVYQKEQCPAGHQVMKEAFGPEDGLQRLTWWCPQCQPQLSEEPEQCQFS
# Description: Inhibition of NEIL2 by quantifying inhibition of NEIL2-mediated cleavage and dissociation of quenched duplex DNA oligonucleotides, measured as fluorescence at 594 nm.
# [5] = biological target: T3, Endonuclease III-like protein 1 (Homo sapiens) (UniProt P78549); conditions: Hit No;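 note: enzyme assay tracking NTHL1 cutting and release of a quenched double-stranded DNA oligo substrate, read as fluorescence at 594 nm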
# T3 sequence (whole entry): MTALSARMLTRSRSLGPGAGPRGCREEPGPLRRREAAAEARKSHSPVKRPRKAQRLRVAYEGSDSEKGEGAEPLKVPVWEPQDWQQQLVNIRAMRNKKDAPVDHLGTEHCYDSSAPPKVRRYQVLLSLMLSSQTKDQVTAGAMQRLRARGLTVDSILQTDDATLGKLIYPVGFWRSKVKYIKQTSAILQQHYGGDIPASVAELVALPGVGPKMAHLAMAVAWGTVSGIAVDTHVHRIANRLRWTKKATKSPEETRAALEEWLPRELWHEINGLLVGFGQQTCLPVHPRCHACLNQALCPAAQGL
# Description: Inhibition of NTHL1 by quantifying inhibition of NTHL1-mediated cleavage and dissociation of quenched duplex DNA oligonucleotides, measured as fluorescence at 594 nm.
# [6] = biological target: T4, Single-strand selective monofunctional uracil DNA glycosylase (Homo sapiens) (UniProt Q53HV7); conditions: Hit No;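 note: enzymatic SMUG1 assay coupled with APE1, reading fluorescence at 594 nm released when a quenched double-stranded DNA oligonucleotide substrate is cleaved and separated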
# T4 sequence (whole entry): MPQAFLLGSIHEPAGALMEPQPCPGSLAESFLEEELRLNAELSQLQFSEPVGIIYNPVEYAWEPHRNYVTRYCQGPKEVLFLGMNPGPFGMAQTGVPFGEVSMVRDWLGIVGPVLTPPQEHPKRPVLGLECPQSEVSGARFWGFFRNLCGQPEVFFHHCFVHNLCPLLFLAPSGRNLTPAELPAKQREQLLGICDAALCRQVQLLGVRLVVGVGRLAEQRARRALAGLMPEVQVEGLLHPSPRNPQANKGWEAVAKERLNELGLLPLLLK
# Description: Inhibition of SMUG1 by quantifying inhibition of SMUG1-mediated cleavage and dissociation of quenched duplex DNA oligonucleotides, measured as fluorescence at 594 nm. To generate a functional strand incision and increase turn-over this assay is coupled to APE1.
# [7] = biological target: G/T mismatch-specific thymine DNA glycosylase (Homo sapiens) (UniProt Q13569); conditions: Hit No;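 note: human TDG cleavage of quenched duplex DNA oligonucleotides coupled to APE1, strand release read as fluorescence at 594 nm, inhibition of TDG activity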
# Description: Inhibition of TDG by quantifying inhibition of TDG-mediated cleavage and dissociation of quenched duplex DNA oligonucleotides, measured as fluorescence at 594 nm. To generate a functional strand incision and increase turn-over this assay is coupled to APE1.
# [8] = biological target: Uracil-DNA glycosylase (Homo sapiens) (UniProt P13051); conditions: Hit No;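 note: UNG excision on a quenched double-stranded DNA oligo probe, with APE1 added for strand incision and turnover, read as fluorescence at 594 nm as strands separate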
# Description: Inhibition of UNG by quantifying inhibition of UNG-mediated cleavage and dissociation of quenched duplex DNA oligonucleotides, measured as fluorescence at 594 nm. To generate a functional strand incision and increase turn-over this assay is coupled to APE1.
# [9] = biological target: N-glycosylase/DNA lyase (Homo sapiens) (UniProt O15527); conditions: Compound Concentration 10.0 uM, Hit No;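 note: OGG1 cleavage of a quenched duplex DNA oligonucleotide, coupled to APE1 for strand incision, read as fluorescence at 594 nm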
# Chain of N-glycosylase/DNA lyase (Homo sapiens) (O15527 whole entry): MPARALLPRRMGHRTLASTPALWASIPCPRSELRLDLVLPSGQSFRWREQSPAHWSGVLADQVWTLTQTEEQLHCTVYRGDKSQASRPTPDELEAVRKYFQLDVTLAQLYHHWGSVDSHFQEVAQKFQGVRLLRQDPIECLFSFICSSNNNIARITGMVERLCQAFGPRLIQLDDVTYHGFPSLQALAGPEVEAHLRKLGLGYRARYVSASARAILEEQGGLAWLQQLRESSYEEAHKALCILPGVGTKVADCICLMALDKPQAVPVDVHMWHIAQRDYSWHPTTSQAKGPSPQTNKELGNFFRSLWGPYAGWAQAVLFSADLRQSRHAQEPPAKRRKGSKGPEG
# Description: Inhibition of OGG1 by quantifying inhibition of OGG1-mediated cleavage and dissociation of quenched duplex DNA oligonucleotides, measured as fluorescence at 594 nm. To generate a functional strand incision and increase turn-over this assay is coupled to APE1.
# Chain of Endonuclease 8-like 1 (Homo sapiens) (Q96FI4 whole entry): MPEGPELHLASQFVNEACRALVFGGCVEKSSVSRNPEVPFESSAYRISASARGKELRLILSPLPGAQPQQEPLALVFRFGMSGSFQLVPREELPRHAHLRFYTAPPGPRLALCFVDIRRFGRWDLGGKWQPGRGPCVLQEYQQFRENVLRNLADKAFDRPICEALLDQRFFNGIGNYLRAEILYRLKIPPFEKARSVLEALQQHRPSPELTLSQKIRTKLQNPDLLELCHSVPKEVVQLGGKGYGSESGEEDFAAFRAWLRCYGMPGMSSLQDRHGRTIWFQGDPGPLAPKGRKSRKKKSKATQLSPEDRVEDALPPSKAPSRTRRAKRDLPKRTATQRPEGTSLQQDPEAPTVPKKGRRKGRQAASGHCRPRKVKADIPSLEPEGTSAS
# Chain of G/T mismatch-specific thymine DNA glycosylase (Homo sapiens) (Q13569 whole entry): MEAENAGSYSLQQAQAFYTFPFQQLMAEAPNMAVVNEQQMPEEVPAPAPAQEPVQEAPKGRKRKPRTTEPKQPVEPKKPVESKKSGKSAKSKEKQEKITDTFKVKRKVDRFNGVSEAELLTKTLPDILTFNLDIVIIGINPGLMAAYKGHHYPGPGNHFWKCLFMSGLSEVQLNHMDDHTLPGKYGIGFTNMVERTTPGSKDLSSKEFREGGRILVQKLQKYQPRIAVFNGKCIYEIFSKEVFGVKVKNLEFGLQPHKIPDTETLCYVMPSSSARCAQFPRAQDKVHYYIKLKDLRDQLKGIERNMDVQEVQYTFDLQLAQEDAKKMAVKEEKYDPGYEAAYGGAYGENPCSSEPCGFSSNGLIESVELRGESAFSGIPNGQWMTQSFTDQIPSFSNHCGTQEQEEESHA
# Chain of Methyl-CpG-binding domain protein 4 (Homo sapiens) (O95243 whole entry, the tested form may be a part): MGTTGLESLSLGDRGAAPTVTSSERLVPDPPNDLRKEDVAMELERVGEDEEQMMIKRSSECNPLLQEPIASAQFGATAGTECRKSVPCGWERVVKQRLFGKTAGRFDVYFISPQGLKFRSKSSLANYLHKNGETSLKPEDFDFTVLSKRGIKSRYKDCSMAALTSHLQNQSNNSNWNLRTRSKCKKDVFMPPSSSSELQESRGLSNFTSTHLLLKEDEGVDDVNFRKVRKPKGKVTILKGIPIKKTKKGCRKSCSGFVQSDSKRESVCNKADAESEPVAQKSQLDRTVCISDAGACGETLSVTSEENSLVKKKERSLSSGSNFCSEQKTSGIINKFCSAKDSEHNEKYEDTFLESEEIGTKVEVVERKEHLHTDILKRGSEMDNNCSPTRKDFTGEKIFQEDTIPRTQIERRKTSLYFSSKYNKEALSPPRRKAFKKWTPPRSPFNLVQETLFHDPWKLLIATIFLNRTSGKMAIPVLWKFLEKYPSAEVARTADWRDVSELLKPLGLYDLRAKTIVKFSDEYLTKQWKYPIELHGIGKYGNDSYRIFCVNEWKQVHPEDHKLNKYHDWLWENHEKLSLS
# Chain of Uracil-DNA glycosylase (Homo sapiens) (P13051 whole entry): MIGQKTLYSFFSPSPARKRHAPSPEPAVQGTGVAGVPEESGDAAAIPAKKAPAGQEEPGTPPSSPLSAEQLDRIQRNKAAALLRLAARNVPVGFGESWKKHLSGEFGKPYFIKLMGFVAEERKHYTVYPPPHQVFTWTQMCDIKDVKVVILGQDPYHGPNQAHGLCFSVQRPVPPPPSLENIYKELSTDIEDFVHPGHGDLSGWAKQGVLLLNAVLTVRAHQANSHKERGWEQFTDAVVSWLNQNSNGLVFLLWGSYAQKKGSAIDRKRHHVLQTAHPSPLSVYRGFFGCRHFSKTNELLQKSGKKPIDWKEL
Compound,inhibition ([1]; Compound Concentration 10.0 uM) [%],inhibition ([2]; Compound Concentration 10.0 uM) [%],inhibition ([3]; Compound Concentration 10.0 uM) [%],inhibition ([4]; Compound Concentration 10.0 uM) [%],inhibition ([5]; Compound Concentration 10.0 uM) [%],inhibition ([6]; Compound Concentration 10.0 uM) [%],inhibition ([7]; Compound Concentration 10.0 uM) [%],inhibition ([8]; Compound Concentration 10.0 uM) [%],inhibition ([1]; Compound Concentration 1.0 uM) [%],inhibition ([2]; Compound Concentration 1.0 uM) [%],inhibition ([3]; Compound Concentration 1.0 uM) [%],inhibition ([4]; Compound Concentration 1.0 uM) [%],inhibition ([5]; Compound Concentration 1.0 uM) [%],inhibition ([6]; Compound Concentration 1.0 uM) [%],inhibition ([7]; Compound Concentration 1.0 uM) [%],inhibition ([8]; Compound Concentration 1.0 uM) [%],inhibition [9] [%]
CN1C2CCCC1CC(Nc1ccccc1Br)C2 (stereo not given),11.1,6.82,-3.4,-3.41,24.5,-9,-8.71,-6.41,–,–,–,–,–,–,–,–,–
CC(C)(C)c1cc(NC(=O)Nc2ccc(-c3cn4c(n3)sc3cc(OCCN5CCOCC5)ccc34)cc2)no1,–,–,–,–,–,–,–,–,0.784,11.2,5.55,1.85,-3.4,19.8,37.3,1.47,–
Cc1ccccc1N1CCN(CCc2nnc3n2CCCC3)CC1,-9.49,7.44,0.834,-1.98,-6.14,-1.58,4.82,–,–,–,–,–,–,–,–,–,–
Cc1cc(NC(=O)c2cccc(S(F)(F)(F)(F)F)c2)cc(-n2ccn3nc(-c4cccnc4)cc23)c1,4.59,–,–,-7.89,7.92,3.64,17.7,0.948,–,16,–,–,-2,19.3,54.6,1.8,–
COc1cc(-c2cn([C@H]3CCc4ccccc4N(CC(F)(F)F)C3=O)nn2)ccc1-n1ccc(C)n1,-5.88,-8.57,–,12.5,-9.83,8.81,24.5,8.95,–,–,–,–,–,–,–,–,–
H-LVVYPWT-OH,9.67,8.4,7.27,2.2,14.6,–,8.08,-2.47,–,–,–,–,–,–,–,–,-2.03
Cc1cccc(CCN2CCC(C(=O)c3ccc(NS(C)(=O)=O)cc3)CC2)n1,-1.99,-5.27,0.158,-4.17,0.568,-8.55,11.1,-5.19,–,–,–,–,–,–,–,–,–
CN(C)CCOc1ccc(-c2nc(-c3ccncc3)c(-c3ccc4c(c3)CC/C4=N\O)[nH]2)cc1,23.9,0.369,1.19,26.4,11.2,-6.49,47.4,11.4,–,–,–,–,–,–,–,–,–
Cc1cc(F)c(C(=O)Nc2cccc(-c3nncn3C(C)C)n2)cc1-n1cnc(C2CC2)c1,–,–,–,–,–,–,–,–,18.6,8.56,8.59,2.93,-4.79,12.2,44.4,-0.67,–
CNc1ncc2cc(-c3ccc(-c4ncccc4F)cc3Cl)c(=O)n(C[C@H]3OC[C@H](N)CO3)c2n1,9.96,10.6,0.666,-5.96,-2,24.9,48.4,9.96,–,–,–,–,–,–,–,–,–
Cn1cc(-n2cnc3c(NCc4nc5cc(Cl)c(Cl)cc5[nH]4)nc(N4CCOCC4)nc32)cn1,6.19,9.84,6.21,1.04,-7.58,25.7,40.7,3.73,–,–,–,–,–,–,–,–,–
COc1ccc(NC(=O)[C@@H]2C[C@H](C)CC[C@H]2C(C)C)cc1,1.36,-7.01,-2.36,-3.15,15.4,11.3,-1.07,-3.01,–,–,–,–,–,–,–,–,–
CC(C)C(=O)Nc1n[nH]c2cc(-c3cccc(NS(=O)(=O)C4CC4)c3)ccc12,-3.9,2.74,4.76,0.236,-0.61,13.9,40.3,-0.0214,–,–,–,–,–,–,–,–,–
COc1ccccc1S(=O)(=O)Nc1ccc(C)cc1Oc1ccc2c(N)nccc2c1,10.2,3.09,11,7.55,17.1,–,9.87,-1.95,–,–,–,–,–,–,–,–,-5.28
O=C1c2cccc3c2[C@H](CCC3)CN1[C@@H]1CN2CCC1CC2,0.552,-5.22,-2.96,–,3.04,-4.7,0.841,-7.93,–,–,–,–,–,–,–,–,–
Cc1c[nH]c2nccc(Oc3c(F)cc(Nc4cc(Cl)nc(N)n4)cc3F)c12,–,–,–,–,–,–,–,–,43.9,11.7,–,3.69,-0.432,20.7,54.4,4.99,–
Cc1nc(N2CC[C@@H](O)C2)ncc1-c1cc(C(F)(F)F)cc2[nH]ncc12,58.5,-2.45,–,–,-5.89,10.3,48,-1.48,–,–,–,–,–,–,–,–,–
C[C@@H](Oc1cc(-n2cnc3ccc(CN4CCN(C)CC4)cc32)sc1C(N)=O)c1ccccc1C(F)(F)F,–,–,–,–,–,–,–,–,15.4,6.26,-0.655,–,-6.19,26.8,50,5.21,–
